From ChEMBL document CHEMBL3997845, “Identification of a novel hormone sensitive lipase inhibitor with a reduced potential of reactive metabolites formation” (Bioorg Med Chem, 2017) come the findings set out here.

Calls of active or inactive are those of the source. No cut-off for these calls is given here.

Data set [1] has as its system Rattus norvegicus. Briefly: Antilipolytic activity in Wistar rat assessed as reduction in plasma glycerol AUC (0 to 7 hrs) at 10 mg/kg, po. Format: functional, organism-based.
The next data set deals with Liver. In words: Drug level in human liver microsomes treated with 2-(4-(5-(trifluoromethyl)pyridin-2-yloxy)benzyloxy)phenylboronic acid at 500 uM after 60 mins in presence of [13C2,15N-Gly]GSH and NADPH generating system by LC-MS/MS analysis. Format: ADME, microsome. The conditions noted are these: 1 h.
Data set [2] in a line: AUC (0 to 7 hrs) in Wistar rat at 3 mg/kg, po by LC-MS/MS analysis. The conditions noted are these: in vivo. Format: ADME, organism-based. More on the design: dose 3 mg/kg, time < 7 hr, route oral.
The nature of data set [3]: Cmax in Wistar rat at 3 mg/kg, po by LC-MS/MS analysis. The format is ADME, organism-based. Further details: dose 3 mg/kg, route oral. The conditions noted are these: in vivo.
In data set [4] the test system is Rattus norvegicus. Briefly: Antilipolytic activity in Wistar rat assessed as reduction in plasma glycerol AUC (0 to 7 hrs) at 3 mg/kg, po relative to control. The format is functional. More on the design: scale not given: the % may be the effect or the level left.
Data set [5] in a line: Metabolic stability in rat liver microsomes assessed as parent compound remaining at 1 uM after 30 mins in presence of NADPH generating system by LC-MS/MS analysis. The format is ADME, microsome. The settings on record: read-out: Stability.

Turning to `O=C(Oc1ccc(Oc2ccc(C(F)(F)F)cn2)cc1)N1CCC(O)CC1`, in the data set with Rattus norvegicus [1], the result was Active.

`O=C(O)CNC(=O)C1CSC(c2ccc(Oc3ccc(C(F)(F)F)cn3)cc2)N1` (stereo unspecified): the Drug metabolism entry in the data set with Liver is recorded as “Metabolite_Detected”.

Regarding `O=C(Nc1ccc(Cl)cc1B(O)O)c1ccc(Oc2ccc(C(F)(F)F)cc2)nc1`, the exposure AUC(0-t) at 7 h in data set [2] amounted to 19600 ng·h/mL. This compound had a maximum concentration (Cmax) in data set [3] of 3350 ng/mL. Also, the Activity with Rattus norvegicus [4] stood at 17%. Also, the remaining at 0.5 h, 1 µM in data set [5] was 81%.
